From ChEMBL document CHEMBL4507288 (2021)
pKi: −log10 of the molar value.

What was measured:
[1] = biological target: Kappa-type opioid receptor (Homo sapiens, UniProt P41145); assay: GPCRScan assay: inhibition of KOR; parameters: radioligand conc. used [nm] 0.6 – 1.2, parental cells stable HEK
Histamine H2 receptor = Histamine H2 receptor (Homo sapiens, UniProt P25021); details: Compound concentration 10.0 uM
[2] = biological target: Sigma non-opioid intracellular receptor 1 (Homo sapiens, UniProt Q99720); assay: GPCRScan assay: inhibition of Sigma 1; parameters: radioligand conc. used [nm] 4.0 – 5.0, parental cells HEKT
Sequence of Sigma non-opioid intracellular receptor 1 (Q99720 whole entry): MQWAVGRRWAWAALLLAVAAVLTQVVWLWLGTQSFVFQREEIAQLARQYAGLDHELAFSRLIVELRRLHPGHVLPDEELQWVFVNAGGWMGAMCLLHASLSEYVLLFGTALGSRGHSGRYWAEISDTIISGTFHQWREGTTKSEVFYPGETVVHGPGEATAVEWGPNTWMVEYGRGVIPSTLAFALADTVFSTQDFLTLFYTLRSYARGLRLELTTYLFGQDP

[3] = biological target: Calcium/calmodulin-dependent protein kinase type II subunit gamma (Homo sapiens) (UniProt Q13555); details: Compound concentration 1000.0 nM
[4] = biological target: MAP/microtubule affinity-regulating kinase 3 (Homo sapiens) (UniProt P27448); details: Compound concentration 1000.0 nM
[5] = biological target: MAP/microtubule affinity-regulating kinase 4 (Homo sapiens) (UniProt Q96L34); details: Compound concentration 1000.0 nM
Sequence of MAP/microtubule affinity-regulating kinase 4 (Homo sapiens) (Q96L34 whole entry): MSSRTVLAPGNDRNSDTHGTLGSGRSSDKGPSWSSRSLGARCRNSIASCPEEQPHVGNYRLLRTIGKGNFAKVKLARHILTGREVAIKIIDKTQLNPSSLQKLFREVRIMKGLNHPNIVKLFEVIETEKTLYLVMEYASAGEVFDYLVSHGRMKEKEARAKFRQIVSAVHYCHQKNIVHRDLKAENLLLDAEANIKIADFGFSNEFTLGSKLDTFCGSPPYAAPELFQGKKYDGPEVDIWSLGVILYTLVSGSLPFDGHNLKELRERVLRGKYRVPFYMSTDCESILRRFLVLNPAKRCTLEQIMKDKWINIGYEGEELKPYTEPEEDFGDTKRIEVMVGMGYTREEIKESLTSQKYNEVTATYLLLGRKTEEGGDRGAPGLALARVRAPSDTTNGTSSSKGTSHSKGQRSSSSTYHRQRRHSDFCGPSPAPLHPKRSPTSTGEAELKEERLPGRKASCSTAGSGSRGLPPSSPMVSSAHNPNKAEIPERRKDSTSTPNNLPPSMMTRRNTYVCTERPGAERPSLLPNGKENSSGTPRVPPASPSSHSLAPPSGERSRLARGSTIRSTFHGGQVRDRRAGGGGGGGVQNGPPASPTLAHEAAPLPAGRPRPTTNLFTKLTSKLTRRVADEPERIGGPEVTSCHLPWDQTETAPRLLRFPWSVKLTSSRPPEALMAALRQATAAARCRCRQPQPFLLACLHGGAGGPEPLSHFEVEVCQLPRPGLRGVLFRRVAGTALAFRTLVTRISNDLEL

[6] = biological target: SRSF protein kinase 1 (Homo sapiens) (UniProt Q96SB4); details: Compound concentration 1000.0 nM
[7] = biological target: Mitogen-activated protein kinase kinase kinase 12 (Homo sapiens) (UniProt Q12852); details: Compound concentration 1000.0 nM
[8] = tested on: Hepatocyte growth factor receptor (Homo sapiens), P08581 [Y1235D]; details: Compound concentration 1000.0 nM
[9] = biological target: Cyclin-dependent kinase 11B (Homo sapiens) (UniProt P21127); details: Compound concentration 1000.0 nM
[10] = biological target: Activin receptor type-1-like (Homo sapiens) (UniProt P37023); details: Compound concentration 1000.0 nM
Sequence of Activin receptor type-1-like (Homo sapiens) (P37023 whole entry): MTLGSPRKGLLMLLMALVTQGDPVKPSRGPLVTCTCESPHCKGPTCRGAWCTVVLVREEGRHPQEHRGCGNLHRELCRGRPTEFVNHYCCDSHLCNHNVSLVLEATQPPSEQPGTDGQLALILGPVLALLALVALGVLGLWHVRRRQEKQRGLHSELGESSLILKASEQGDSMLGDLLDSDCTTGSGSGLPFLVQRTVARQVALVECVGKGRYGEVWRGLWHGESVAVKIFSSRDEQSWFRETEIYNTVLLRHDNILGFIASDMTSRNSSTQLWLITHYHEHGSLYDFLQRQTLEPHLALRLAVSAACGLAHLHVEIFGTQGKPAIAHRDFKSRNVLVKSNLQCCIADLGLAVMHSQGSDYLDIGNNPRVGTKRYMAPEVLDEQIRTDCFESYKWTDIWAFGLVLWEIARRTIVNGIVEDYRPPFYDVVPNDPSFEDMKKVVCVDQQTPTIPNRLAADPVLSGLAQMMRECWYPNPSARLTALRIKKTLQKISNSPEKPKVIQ

[11] = biological target: Serine/threonine-protein kinase PknB (Mycobacterium tuberculosis) (UniProt P9WI81); details: Compound concentration 1000.0 nM
[12] = biological target: Vascular endothelial growth factor receptor 1 (Homo sapiens) (UniProt P17948); details: Compound concentration 1000.0 nM
[13] = biological target: Ephrin type-B receptor 1 (Homo sapiens) (UniProt P54762); details: Compound concentration 1000.0 nM
[14] = tested on: Epidermal growth factor receptor (Homo sapiens), P00533 [UNDEFINED MUTATION]; details: Compound concentration 1000.0 nM
[15] = biological target: Serine/threonine-protein kinase OSR1 (Homo sapiens) (UniProt O95747); details: Compound concentration 1000.0 nM
[16] = biological target: Myosin-IIIa (Homo sapiens) (UniProt Q8NEV4); details: Compound concentration 1000.0 nM
[17] = biological target: Ribosomal protein S6 kinase alpha-2 (Homo sapiens) (UniProt Q15349); details: Compound concentration 1000.0 nM
[18] = biological target: MAP kinase-interacting serine/threonine-protein kinase 2 (Homo sapiens) (UniProt Q9HBH9); details: Compound concentration 1000.0 nM
[19] = biological target: Cyclin-dependent kinase 13 (Homo sapiens) (UniProt Q14004); details: Compound concentration 1000.0 nM
[20] = biological target: Tyrosine-protein kinase TXK (Homo sapiens) (UniProt P42681); details: Compound concentration 1000.0 nM
[21] = biological target: Serine/threonine-protein kinase STK11 (Homo sapiens) (UniProt Q15831); details: Compound concentration 1000.0 nM
[22] = biological target: Serine/threonine-protein kinase Nek4 (Homo sapiens) (UniProt P51957); details: Compound concentration 1000.0 nM
[23] = tested on: Tyrosine-protein kinase ABL1 (Homo sapiens), P00519 [T315I]; details: Compound concentration 1000.0 nM
[24] = biological target: MAP kinase-activated protein kinase 2 (Homo sapiens) (UniProt P49137); details: Compound concentration 1000.0 nM
[25] = biological target: Cyclin-dependent kinase 5 (Homo sapiens) (UniProt Q00535); details: Compound concentration 1000.0 nM
[26] = tested on: Mast/stem cell growth factor receptor Kit (Homo sapiens), P10721 [V559D]; details: Compound concentration 1000.0 nM
Sequence of Mast/stem cell growth factor receptor Kit (Homo sapiens), P10721 [V559D] (P10721 whole entry V559D): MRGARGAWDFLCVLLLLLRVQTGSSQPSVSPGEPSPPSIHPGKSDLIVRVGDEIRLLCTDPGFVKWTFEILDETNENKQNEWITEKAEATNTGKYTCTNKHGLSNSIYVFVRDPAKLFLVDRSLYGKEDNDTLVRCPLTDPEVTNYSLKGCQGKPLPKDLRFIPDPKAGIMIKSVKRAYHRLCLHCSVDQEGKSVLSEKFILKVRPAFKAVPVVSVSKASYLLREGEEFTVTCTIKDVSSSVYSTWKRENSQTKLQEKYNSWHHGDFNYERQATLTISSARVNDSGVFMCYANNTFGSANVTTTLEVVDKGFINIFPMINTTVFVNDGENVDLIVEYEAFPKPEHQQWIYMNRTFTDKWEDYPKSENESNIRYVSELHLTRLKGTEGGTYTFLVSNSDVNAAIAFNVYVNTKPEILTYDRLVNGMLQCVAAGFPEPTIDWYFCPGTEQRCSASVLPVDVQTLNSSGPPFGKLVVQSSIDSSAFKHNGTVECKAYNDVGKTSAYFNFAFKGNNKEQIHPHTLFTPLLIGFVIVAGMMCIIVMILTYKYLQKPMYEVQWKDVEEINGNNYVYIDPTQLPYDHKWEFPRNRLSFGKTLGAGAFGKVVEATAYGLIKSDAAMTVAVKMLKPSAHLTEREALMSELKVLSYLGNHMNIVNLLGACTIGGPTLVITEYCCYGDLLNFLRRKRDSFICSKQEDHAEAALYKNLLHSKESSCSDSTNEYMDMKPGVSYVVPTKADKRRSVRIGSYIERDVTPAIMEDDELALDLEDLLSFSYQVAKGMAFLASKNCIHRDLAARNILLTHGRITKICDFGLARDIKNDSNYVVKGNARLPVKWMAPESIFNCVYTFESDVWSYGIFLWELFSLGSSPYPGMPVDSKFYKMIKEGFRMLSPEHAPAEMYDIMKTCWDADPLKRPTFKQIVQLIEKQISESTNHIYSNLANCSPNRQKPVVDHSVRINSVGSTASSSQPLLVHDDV

[27] = biological target: Cyclin-dependent kinase 4 (Homo sapiens) (UniProt P11802); details: Compound concentration 1000.0 nM
[28] = biological target: Ribosomal protein S6 kinase alpha-1 (Homo sapiens) (UniProt Q15418); details: Compound concentration 1000.0 nM
[29] = biological target: Mitogen-activated protein kinase kinase kinase 7 (Homo sapiens) (UniProt O43318); details: Compound concentration 1000.0 nM
[30] = biological target: TRAF2 and NCK-interacting protein kinase (Homo sapiens) (UniProt Q9UKE5); details: Compound concentration 1000.0 nM
Sequence of TRAF2 and NCK-interacting protein kinase (Homo sapiens) (Q9UKE5 whole entry, looked up): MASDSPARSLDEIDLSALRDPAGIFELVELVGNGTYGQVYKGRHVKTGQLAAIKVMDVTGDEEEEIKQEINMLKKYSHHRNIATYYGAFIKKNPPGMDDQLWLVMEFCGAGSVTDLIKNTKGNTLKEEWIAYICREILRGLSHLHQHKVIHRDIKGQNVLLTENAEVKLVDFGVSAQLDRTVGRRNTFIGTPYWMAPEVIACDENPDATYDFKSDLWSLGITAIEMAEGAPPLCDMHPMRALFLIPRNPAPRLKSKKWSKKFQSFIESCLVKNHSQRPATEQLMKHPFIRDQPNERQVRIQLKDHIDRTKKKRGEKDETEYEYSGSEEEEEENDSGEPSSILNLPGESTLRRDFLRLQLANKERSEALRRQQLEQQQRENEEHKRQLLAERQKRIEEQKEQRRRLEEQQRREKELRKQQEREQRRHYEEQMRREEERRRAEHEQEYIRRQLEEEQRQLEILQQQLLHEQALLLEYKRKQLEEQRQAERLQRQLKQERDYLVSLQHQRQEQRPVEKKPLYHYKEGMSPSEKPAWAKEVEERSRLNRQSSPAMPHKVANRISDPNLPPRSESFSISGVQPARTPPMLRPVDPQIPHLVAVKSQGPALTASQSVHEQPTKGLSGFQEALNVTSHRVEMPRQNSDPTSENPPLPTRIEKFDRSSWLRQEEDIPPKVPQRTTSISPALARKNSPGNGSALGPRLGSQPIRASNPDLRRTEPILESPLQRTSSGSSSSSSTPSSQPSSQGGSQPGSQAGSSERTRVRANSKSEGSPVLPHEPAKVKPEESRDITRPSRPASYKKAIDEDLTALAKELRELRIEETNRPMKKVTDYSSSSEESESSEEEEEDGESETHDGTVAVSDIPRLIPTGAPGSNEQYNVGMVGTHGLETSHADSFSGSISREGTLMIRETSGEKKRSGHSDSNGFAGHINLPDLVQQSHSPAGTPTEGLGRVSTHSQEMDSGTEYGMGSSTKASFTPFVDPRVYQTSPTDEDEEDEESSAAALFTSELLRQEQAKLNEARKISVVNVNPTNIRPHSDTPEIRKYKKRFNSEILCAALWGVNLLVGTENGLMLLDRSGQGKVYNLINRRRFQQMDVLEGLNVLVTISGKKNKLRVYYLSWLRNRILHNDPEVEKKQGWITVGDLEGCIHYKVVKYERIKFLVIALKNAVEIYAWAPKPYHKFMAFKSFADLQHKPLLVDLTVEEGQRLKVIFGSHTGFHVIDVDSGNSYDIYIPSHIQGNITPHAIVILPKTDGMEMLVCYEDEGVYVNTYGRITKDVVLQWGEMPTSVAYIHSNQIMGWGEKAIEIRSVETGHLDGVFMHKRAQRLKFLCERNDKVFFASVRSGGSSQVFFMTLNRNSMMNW

[31] = biological target: Ribosomal protein S6 kinase alpha-6 (Homo sapiens) (UniProt Q9UK32); details: Compound concentration 1000.0 nM
[32] = biological target: Atypical kinase COQ8B, mitochondrial (Homo sapiens) (UniProt Q96D53); details: Compound concentration 1000.0 nM
[33] = biological target: cGMP-dependent protein kinase 2 (Homo sapiens) (UniProt Q13237); details: Compound concentration 1000.0 nM
[34] = biological target: Megakaryocyte-associated tyrosine-protein kinase (Homo sapiens) (UniProt P42679); details: Compound concentration 1000.0 nM
[35] = biological target: 5'-AMP-activated protein kinase catalytic subunit alpha-2 (Homo sapiens) (UniProt P54646); details: Compound concentration 1000.0 nM
[36] = biological target: Proto-oncogene tyrosine-protein kinase receptor Ret (Homo sapiens) (UniProt P07949); details: Compound concentration 1000.0 nM
[37] = biological target: Myosin light chain kinase family member 4 (Homo sapiens) (UniProt Q86YV6); details: Compound concentration 1000.0 nM
Sequence of Myosin light chain kinase family member 4 (Homo sapiens) (Q86YV6 whole entry): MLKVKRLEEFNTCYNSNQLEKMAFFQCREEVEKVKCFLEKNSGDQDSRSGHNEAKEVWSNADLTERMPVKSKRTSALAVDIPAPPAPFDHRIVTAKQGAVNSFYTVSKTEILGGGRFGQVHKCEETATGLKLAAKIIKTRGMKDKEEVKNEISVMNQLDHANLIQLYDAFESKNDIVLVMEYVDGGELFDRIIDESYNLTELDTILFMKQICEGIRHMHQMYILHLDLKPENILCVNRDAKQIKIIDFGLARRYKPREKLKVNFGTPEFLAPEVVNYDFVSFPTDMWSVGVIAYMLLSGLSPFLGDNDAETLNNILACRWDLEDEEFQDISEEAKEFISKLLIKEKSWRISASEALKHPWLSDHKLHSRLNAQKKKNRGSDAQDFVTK

[38] = biological target: Serine/threonine-protein kinase SBK1 (Homo sapiens) (UniProt Q52WX2); details: Compound concentration 1000.0 nM
[39] = biological target: Mitogen-activated protein kinase kinase kinase 5 (Homo sapiens) (UniProt Q99683); details: Compound concentration 1000.0 nM
[40] = biological target: Ephrin type-B receptor 4 (Homo sapiens) (UniProt P54760); details: Compound concentration 1000.0 nM
[41] = biological target: Serine/threonine-protein kinase PAK 3 (Homo sapiens) (UniProt O75914); details: Compound concentration 1000.0 nM
[42] = biological target: Serine/threonine-protein kinase PAK 1 (Homo sapiens) (UniProt Q13153); details: Compound concentration 1000.0 nM
[43] = biological target: ALK tyrosine kinase receptor (Homo sapiens) (UniProt Q9UM73); details: Compound concentration 1000.0 nM
[44] = biological target: MAP kinase-activated protein kinase 5 (Homo sapiens) (UniProt Q8IW41); details: Compound concentration 1000.0 nM

Sequence of Kappa-type opioid receptor (P41145 whole entry): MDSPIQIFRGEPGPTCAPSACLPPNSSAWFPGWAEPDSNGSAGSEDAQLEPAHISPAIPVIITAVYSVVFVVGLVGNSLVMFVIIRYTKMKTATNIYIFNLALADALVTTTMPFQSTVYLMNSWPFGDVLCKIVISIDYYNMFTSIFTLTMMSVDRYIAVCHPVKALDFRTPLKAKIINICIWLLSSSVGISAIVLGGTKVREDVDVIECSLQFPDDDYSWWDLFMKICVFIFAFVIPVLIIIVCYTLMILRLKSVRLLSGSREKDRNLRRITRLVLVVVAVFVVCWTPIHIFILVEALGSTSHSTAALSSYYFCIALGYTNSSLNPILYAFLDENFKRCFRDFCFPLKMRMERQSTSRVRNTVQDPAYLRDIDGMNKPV
Sequence of Histamine H2 receptor (P25021 whole entry): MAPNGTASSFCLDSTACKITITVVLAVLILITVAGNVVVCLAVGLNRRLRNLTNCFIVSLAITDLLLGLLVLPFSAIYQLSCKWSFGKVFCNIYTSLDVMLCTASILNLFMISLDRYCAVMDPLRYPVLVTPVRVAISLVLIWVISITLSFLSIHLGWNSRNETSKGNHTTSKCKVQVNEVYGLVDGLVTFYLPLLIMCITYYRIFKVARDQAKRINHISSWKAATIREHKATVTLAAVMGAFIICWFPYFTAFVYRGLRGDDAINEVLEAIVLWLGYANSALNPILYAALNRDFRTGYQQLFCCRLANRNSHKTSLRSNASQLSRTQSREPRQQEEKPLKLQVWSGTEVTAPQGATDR

`CC(C)(C)OC(=O)N1CCCC1CNC1CCC(c2cc(F)ccc2F)(S(=O)(=O)c2ccc(Cl)cc2)CC1` (stereo unspecified) [GSI-NC] was tested, and the pKi ([1]; read-out: Ki) was 5.48, the Ki ([1]; read-out: pKi (converted)) was 3.31 µM and the inhibition (Histamine H2 receptor) was 53.1%. It also gave a pKi [2] of 6.65.
`O=S(=O)(NC1CCC(c2cc(F)ccc2F)(S(=O)(=O)c2ccc(Cl)cc2)CC1)C(F)(F)F` (stereo unspecified) [MRK-560] showed a residual activity [3] of 100%, a residual activity [4] of 79% and a residual activity [5] of 100%. The residual activity [6] was 100%, the residual activity [7] was 100% and the residual activity [8] was 97%. The residual activity [9] was 82%, the residual activity [10] was 100% and the residual activity [11] was 91%. The residual activity [12] was 86%, the residual activity [13] was 100% and the residual activity [14] was 100%. For the same compound, the residual activity [15] was 91%, the residual activity [16] was 91% and the residual activity [17] was 100%. For the same compound, the residual activity [18] was 57%, the residual activity [19] was 92% and the residual activity [20] was 99%. It also gave a residual activity [21] of 100%, a residual activity [22] of 100% and a residual activity [23] of 85%. For the same compound, the residual activity [24] was 93%, the residual activity [25] was 100% and the residual activity [26] was 95%. For the same compound, the residual activity [27] was 91%, the residual activity [28] was 100% and the residual activity [29] was 100%. It also gave a residual activity [30] of 82%, a residual activity [31] of 90% and a residual activity [32] of 88%. It also gave a residual activity [33] of 100%, a residual activity [34] of 100% and a residual activity [35] of 96%. For the same compound, the residual activity [36] was 92%, the residual activity [37] was 100% and the residual activity [38] was 75%. For the same compound, the residual activity [39] was 80%, the residual activity [40] was 100% and the residual activity [41] was 100%. For the same compound, the residual activity [42] was 93%, the residual activity [43] was 100% and the residual activity [44] was 93%.
